Laboratory results reported in patent US20250201406A1, “METHOD AND BIOMARKER FOR PREDICTING SEVERITY OF COVID-19 DISEASE AND METHOD FOR THERAPEUTIC INTERVENTION IN COVID-19 DISEASE” (priority 2022, published 2025).

Tests used:
COVID-19 [1] = settings: COVID-19 patients, stage-2 clinical trial; cited from earlier work
COVID-19 [2] = settings: randomized clinical trials; cited from earlier work
CD8^+Tc = experiment: SARS-CoV-2 specific peptide activation of COVID(+) PBMCs in presence or absence of Mdivi-1, flow cytometry of CD8+Tc; format: cell-based, human; settings: 20 μM Mdivi-1 vs vehicle, 96 hr, CD8a SARS-CoV-2 megapool peptide, PBMCs from COVID-19(+) patients
Method: (§1) PBMCs (0.5×10^6 cells) were first stained with live/dead in PBS for 15 min, washed with Flow Cytometry Staining Buffer (FACS Buffer), and stained with surface markers in ice-cold FACS buffer at 4° C. for 30 min. PBMCs were then washed twice with FACS buffer and stained with secondary antibodies for 15 minutes. Samples were fixed and permeabilized using Fixation/Permeabilization buffer (20 min) at room temperature and washed with ice-cold FACS buffer. PBMCs were then stained with intracellular antibodies at 37° C. for 45 min in permeabilization buffer. Samples were washed once with permeabilization buffer before being resuspended in FACS buffer for flow cytometric analysis using Cytoflex system. Data was then analyzed by Flowjo™v10.
(§2) PBMCs (5×10^5) were stimulated with […] of CD8a SARS-CoV-2 megapool peptide^92 in the presence of absence of 20 μM Mdivi-1 at 37° C., 5% C02 for 96 hr.
(§3) FIGS. 15A-F. Mitophagy inhibition restores CD8^+Tc and SARS-CoV-2 specific CD8^+Tc function. PBMCs from 5 COVID-19(+) patients were activated with SARS-CoV-2 megapool CD8a peptide (see Methods) in the presence or absence of MDIVI-1 (20 μM). One sample was excluded from analysis due to critically low CD8^+Tc count. […] Two-tailed student's T-test was used. *p<0.05, **p<0.01, and ***p<0.001.

CD8^+TM = experiment: SARS-CoV-2 specific peptide activation of COVID(+) PBMCs in presence or absence of Mdivi-1, flow cytometry of CD8+TM; format: cell-based, human; settings: 20 μM Mdivi-1 vs vehicle, 96 hr, CD8a SARS-CoV-2 megapool peptide, PBMCs from COVID-19(+) patients
Method: as §1, §2, §3

SARS-CoV-2 = settings: virally infected cells; cited from earlier work
[3] = test system: SARS-CoV-2 specific CD8^+Tc; settings: through normalizing cellular metabolism; cited from earlier work

## O=CC[C@@H](O)[C@H](O)[C@H](O)CO [2-DG, 2-deoxy-glucose]
COVID-19 [1]
  patient outcomes: successful in improving patient outcomes

## CCN(CCO)CCCC(C)Nc1ccnc2cc(Cl)ccc12 (stereo not drawn) [Hydroxychloroquine]
COVID-19 [2]
  efficacy in COVID-19: ineffective

## COc1cc(-n2c(=S)[nH]c3ccccc3c2=O)c(Cl)cc1Cl [Mdivi-1]
CD8^+Tc; FIG. 15B
  generation of SARS-CoV-2-specific CD137^+ cells amongst CD8+Tc: improved
CD8^+Tc; FIG. 15C
  proliferation (Ki-67^+ cells) of CD8+Tc: induced
CD8^+Tc; FIG. 15D
  IFNy-secreting capacity of CD8^+Tc: induced
CD8^+TM
  Glut-1 expression in CD8^+TM: reduced
CD8^+TM; FIG. 15E
  CD8^+TM proliferation (Ki-67): augmented
SARS-CoV-2
  SARS-CoV-2 replication: effectively reduce

## cyclophilin A: found to restore SARS-CoV-2 specific CD8+Tc function through normalizing cellular metabolism
[3]
  SARS-CoV-2 specific CD8^+Tc function: restore
